Results on one substance are retold here after US20090137493A1, “Inhibition of tumor metastases using protein kinase C (PKC) inhibitors” (priority 2007, published 2009).

The test system of the assay is MDA-MB-231 breast cancer cells. The experiment in a line: Cell migration/invasion assay through a HUVEC monolayer, MDA-MB-231. The format is cell-based, human. To be noted: peptide 10 μM, re-applied every 2 hours for 10 hours. From the text: FIGS. 14A and 14B are bar graphs showing the efficacy of TAT carrier peptide (TAT), αV5-3-TAT peptide (Alpha), βIIV5-3 peptide (Beta-2), and εV1-2 (Epsilon) in inhibiting the invasion of human MDA-MB-231 and MCF-7 breast cancer cells through a HUVEC monolayer. FIGS. 14C and 14D are bar graphs showing the efficacy of TAT carrier peptide (TAT) or αV5-3-TAT peptide in inhibiting the invasion of 4T1 (FIG. 11C) and MDA-MB-231 (FIG. 11D) cells.
FIGS. 14A and 14B show the results of a related experiment measuring the efficacy of TAT carrier peptide (TAT), αV5-3-TAT peptide (Alpha), βIIV5-3 peptide (Beta-2), and εV1-2 peptide (Epsilon) in inhibiting the invasion of human MDA-MB-231 and MCF-7 breast cancer cells through a HUVEC monolayer. FIGS. 14C and 14D show the results of a similar experiment showing the efficacy of TAT carrier peptide (TAT) or αV5-3-TAT peptide in inhibiting the invasion of 4T1 (FIG. 11C) and MDA-MB-231 (FIG. 11D) cells.
Cell Migration/invasion assay: Primary human endothelial cells (HUVEC's) were plated on top of a matrigel plug in trans-well plates. Once the cells had reached confluence (as determined by examination of a control well), 1×10^6 human breast cancer cells (MCF-7 or MDA-MB-231) expressing luciferase were added above the HUVEC cell layer. Where applicable, peptides were added to a final concentration of 10 μM and re-applied every 2 hours for 10 hours followed by further incubation. After 24-48 hours-incubation the HUVEC cell layer (and all other cells above the matrigel) were removed by scraping of the cell layer into the media and aspiration (repeated 3 times). The relative numbers of cancer cells that had crossed the HUVEC cell layer and entered the matrigel was then determined by bioluminescence detection of luciferase action following addition of luciferin substrate.

Bridges are numbered along the chain shown (N, C = ends). Where no end group is shown, it is not given here.

For the substance “YGRKKRRQRRR-CC-QLVIAN (YGRKKRRQRRRCCQLVIAN; disulfide 12-13 (inferred)) [αV5-3-TAT]”, the “invasion of MDA-MB-231 cells through a HUVEC monolayer” value is listed as “reduced”.
